Test results published in US6890921B1, “Arylsubstituted piperazines useful in the treatment of benign prostatic hyperplasia” (Ortho-McNeil Pharmaceutical, Inc., priority 1997, dated 2005).

Key:
α1d-AR = biological target: T1, α1d-AR (Homo sapiens, UniProt P25100); experiment: Radioligand ([125I]-HEAT) receptor binding assay, COS cell membranes expressing α1d-AR; conditions: [125I]-HEAT 50 pM
T1 construct: expressed in transfected cells; host or cells: COS cells (transient, DEAE-dextran), membranes
T1 sequence (P25100 1-572): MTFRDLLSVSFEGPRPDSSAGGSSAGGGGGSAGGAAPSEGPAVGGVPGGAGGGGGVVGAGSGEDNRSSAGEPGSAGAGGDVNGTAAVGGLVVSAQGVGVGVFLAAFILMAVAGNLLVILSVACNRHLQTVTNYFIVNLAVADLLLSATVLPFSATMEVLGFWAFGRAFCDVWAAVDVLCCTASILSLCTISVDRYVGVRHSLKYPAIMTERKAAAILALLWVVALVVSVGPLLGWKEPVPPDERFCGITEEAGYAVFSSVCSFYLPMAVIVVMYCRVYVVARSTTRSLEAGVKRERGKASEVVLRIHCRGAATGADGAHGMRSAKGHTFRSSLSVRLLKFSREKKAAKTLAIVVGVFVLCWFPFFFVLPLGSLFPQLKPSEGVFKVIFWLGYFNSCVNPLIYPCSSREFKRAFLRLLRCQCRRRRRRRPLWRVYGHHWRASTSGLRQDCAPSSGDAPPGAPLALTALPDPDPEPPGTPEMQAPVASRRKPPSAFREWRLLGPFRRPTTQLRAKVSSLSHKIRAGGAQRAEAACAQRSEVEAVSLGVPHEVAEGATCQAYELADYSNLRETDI
Source text: (§1) The DNA sequences of the three cloned human α1-AR subtypes have been published. […] We used published DNA sequence information to design primers for use in RT-PCR amplification of each subtype to obtain cloned cDNAs. Human poly A+ RNA was obtained from commercially available sources and included hippocampus and prostate samples, sources which have been cited in the literature. For the primary screen a radio ligand binding assay was used which employed membrane preparations from cells expressing the individual cloned receptor cDNAs. Radiolabeled ligands with binding activity on all three subtypes (non-selective) are commercially available ([125I]-HEAT, [3H]-prazosin).
(§2) Each α1 receptor subtype was cloned from poly A+ RNA by the standard method of reverse transcription-polymerase chain reaction (RT-PCR). The following sources of polyA+ RNA were used for the cloning of the α1 receptor subtypes: α1a-AR, human hippocampus and prostate, α1b-AR, human hippocampus, α1d-AR, human hippocampus. The resulting cDNAs were cloned into the pcDNA3 mammalian expression vector (Invitrogen Corp., San Diego Calif.). Each DNA was sequenced for verification and to detect any possible mutations introduced during the amplification process. Any deviation in sequence from the published consensus for each receptor subtype was corrected by site-directed mutagenesis.
(§3) The three α1-AR subtypes (a, b, d) were transfected into COS cells using a standard DEAE-dextran procedure with a chloroquine shock. In this procedure, each tissue culture dish (100 mm) was inoculated with 3.5×10^6 cells and transfected with 10 μg of DNA. Approximately 72 hours post-transfection, the cells were harvested and COS membranes were prepared. Transfected COS cells from 25 plates (100 mm) were scraped and suspended in 15 mL of TE buffer (50 mM Tris-HCl, 5 mM EDTA, pH7.4). The suspension was disrupted with a homogenizer. It was then centrifuged at 1000×g for 10 minutes at 4° C. The supernatant was centrifuged at 34,500×g for 20 minutes at 4° C. The pellet was resuspended in 5 mL TNE buffer (50 mM Tris-HCl, 5 mM EDTA, 150 mM NaCl, pH7.4). The resulting membrane preparation was aliquoted and stored at −70° C. The protein concentration was determined following membrane solubilization with TritonX-100.
(§4) The ability of each compound to bind to each of the α1-AR subtypes was assessed in a receptor binding assay. [125I]-HEAT, a non-selective α1-AR ligand, was used as the radiolabeled ligand. Each well of a 96-well plate received: 140 μL TNE, 25 μL [125I]-HEAT diluted in TNE (50,000 cpm; final concentration 50 pM), 10 μL test compound diluted in DMSO (final concentration 1 pM-[…]), […] COS cell membrane preparation expressing one of the three α1-AR subtypes (0.05-0.2 mg membrane protein). The plate was incubated for 1 hour at room temperature and the reaction mixtures were filtered through a Packard GF/C Unifilter filter plate. The filter plate was dried for 1 hour in a vacuum oven. Scintillation fluid ([…]) was added to each well, and the filter plate was counted in a Packard Topcount scintillation counter. Data was analyzed using GraphPad Prism software.
(§5) Tables A & B list the IC50 values expressed in nanomolar concentration for select compounds of the invention in all receptor subtypes.

α1b-AR = biological target: T2, α1b-AR (Homo sapiens, UniProt P35368); experiment: Radioligand ([125I]-HEAT) receptor binding assay, COS cell membranes expressing α1b-AR; conditions: [125I]-HEAT 50 pM
T2 construct: expressed in transfected cells; host or cells: COS cells (transient, DEAE-dextran), membranes
T2 sequence (P35368 1-520): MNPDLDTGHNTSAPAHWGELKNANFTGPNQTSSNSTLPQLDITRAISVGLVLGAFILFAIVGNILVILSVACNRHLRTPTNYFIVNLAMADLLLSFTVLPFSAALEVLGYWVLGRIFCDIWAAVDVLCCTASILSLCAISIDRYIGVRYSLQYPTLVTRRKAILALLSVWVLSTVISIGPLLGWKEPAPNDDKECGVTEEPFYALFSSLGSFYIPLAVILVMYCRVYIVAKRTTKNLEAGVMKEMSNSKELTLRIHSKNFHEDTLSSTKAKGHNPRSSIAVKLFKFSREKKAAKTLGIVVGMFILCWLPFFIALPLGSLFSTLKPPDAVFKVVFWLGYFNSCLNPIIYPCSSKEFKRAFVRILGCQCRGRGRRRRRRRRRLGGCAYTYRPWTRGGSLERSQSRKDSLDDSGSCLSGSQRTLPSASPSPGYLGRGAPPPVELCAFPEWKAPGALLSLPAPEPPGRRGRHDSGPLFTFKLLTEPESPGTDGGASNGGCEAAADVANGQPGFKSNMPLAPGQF
Source text: as §1, §2, §3, §4, §5

α1a-AR = biological target: T3, α1a-AR (Homo sapiens, UniProt P35348); experiment: Radioligand ([125I]-HEAT) receptor binding assay, COS cell membranes expressing α1a-AR; conditions: [125I]-HEAT 50 pM
T3 construct: expressed in transfected cells; host or cells: COS cells (transient, DEAE-dextran), membranes
T3 sequence (P35348 1-466): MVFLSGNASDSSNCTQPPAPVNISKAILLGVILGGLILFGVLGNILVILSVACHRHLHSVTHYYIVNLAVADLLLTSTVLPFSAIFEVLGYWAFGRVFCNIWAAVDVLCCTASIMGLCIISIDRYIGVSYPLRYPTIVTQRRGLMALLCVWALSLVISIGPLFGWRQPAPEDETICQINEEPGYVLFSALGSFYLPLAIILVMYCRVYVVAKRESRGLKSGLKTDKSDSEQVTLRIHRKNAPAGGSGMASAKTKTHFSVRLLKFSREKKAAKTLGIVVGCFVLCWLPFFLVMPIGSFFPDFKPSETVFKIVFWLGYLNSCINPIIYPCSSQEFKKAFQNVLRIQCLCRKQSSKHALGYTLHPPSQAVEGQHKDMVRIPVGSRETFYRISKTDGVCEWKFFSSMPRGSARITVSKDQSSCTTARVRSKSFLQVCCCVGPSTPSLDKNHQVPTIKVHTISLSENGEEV
Source text: as §1, §2, §3, §4, §5

[1] = tested on: rat aorta tissue (α1b-AR and α1d-AR); experiment: Norepinephrine-induced contractile response of rat aorta tissue; conditions: rat aortic rings, 37° C., read-out: IC50 for inhibition of contractile response in aortic tissue
Source text: (§6) The contractile responses of rat prostatic tissue and rat aorta tissues were examined in the presence and absence of antagonist compounds. As an indication of the selectivity of antagonism, test compound effects on vascular smooth muscle contractility (α1b-AR and α1d-AR) were compared to the effects on prostatic smooth muscle (α1a-AR). Strips of prostatic tissue and aortic rings were obtained from Long Evans derived male rats weighing 275 grams and sacrificed by cervical dislocation. The prostate tissue was placed under 1 gram tension in a 10 ml bath containing phosphate buffered saline pH 7.4 at 32° C. and isometric tension was measured with force transducers. The aortic tissue was placed under 2 grams tension in a 10 ml bath containing phosphate buffered saline pH 7.4 at 37° C. The ability of test compound to reduce the norepinephrine-induced contractile response by 50% (IC50) was determined.

[2] = tested on: rat prostatic tissue (α1a-AR); experiment: Norepinephrine-induced contractile response of rat prostatic tissue; conditions: rat prostatic strips, 32° C., read-out: IC50 for inhibition of contractile response in prostate tissue
Source text: as §6

[3] = biological target: T4, HEK 293s cells expressing human α1a-AR (Homo sapiens, UniProt P35348); experiment: Antagonism of norepinephrine-induced mobilization of cytosolic calcium (Fluo-3, FLIPR); format: cell-based; conditions: norepinephrine 10 uM, read-out: IC50 for inhibition of the mobilization of cytosolic calcium
T4 construct: expressed in transfected cells
T4 sequence (P35348 1-466): T3 sequence (P35348 1-466)
Source text: Binding of an agonist to α1-ARs causes the activation of PLC through G-protein coupled mechanisms (Minneman and Esbenshade, 1994). PLC catalyzes the hydrolysis of phosphatidyl inositol 4,5-bisphosphate (PIP2) generating two second messenger molecules, inositol 1,4,5-triphosphate (IP3) and diacylglycerol (DAG) and ultimately resulting in mobilization of intracellular calcium stores.
Preparation of stable cell lines expressing each receptor subtype: The alpha 1 adrenergic receptor subtypes (a, b, d) in the pcDNA3 vector were transfected into HEK 293s (human embryonic kidney) cells to form stable receptor-expressing cell lines. Transfection was performed using DMRIE-C (GibcoBRL) cationic lipid reagent mixed with 2-3 ug of DNA and reduced serum OPTI-MEM 1 medium (GibcoBRL). Cells in 100 mm tissue culture plates were overlayed with the lipid-DNA complex and incubated at 37° C., 5% CO2 for 5-6 hours. Serum-containing growth medium was then added and cells were incubated for an additional 48 hours. […] Positive cultures were subsequently analyzed by the calcium mobilization assay.
HEK 293s cells expressing human α1a-AR were lifted with trypsin and washed once with HBSS. […] Afterward, the agonist was added and fluorescent signal was monitored for 2-3 minutes using FLIPR (Molecular Devices, USA).

| IC50 (α1d-AR; Table A) | IC50 (α1b-AR; Table A) | IC50 (α1a-AR; Table A) | IC50 [1] | IC50 [2] | IC50 [3] | IC50 (α1d-AR; Table B) | IC50 (α1b-AR; Table B) | IC50 (α1a-AR; Table B) | SMILES |
| --- | --- | --- | --- | --- | --- | --- | --- | --- | --- |
| 650 nM | 764 µM | 53 nM |  |  |  |  |  |  | CC(C)Oc1ccccc1N1CCN(CCN(C)C(=O)CN2CCCCC2=O)CC1 [Cpd. 6] |
| 372 nM | 46.1 µM | 8.7 nM | 31.9 µM | 1300 nM | 99 µM |  |  |  | CC(C)Oc1ccccc1N1CCN(CCNC(=O)CN2CCCCC2=O)CC1 [Cpd. 5] |
| 30500 nM | 109 µM | 98 nM |  |  |  |  |  |  | COc1ccccc1N1CCN(CCCNC(=O)CN2CCCCC2=O)CC1 [compound 12] |
| 505 nM | 3.54 µM | 18 nM |  |  |  |  |  |  | CC(C)Oc1ccccc1N1CCN(CCNC(=O)CN2CCCCCC2=O)CC1 [compound 11] |

The next lines start with the compound.

| SMILES | IC50 (α1d-AR; Table A) | IC50 (α1b-AR; Table A) | IC50 (α1a-AR; Table A) | IC50 [1] | IC50 [2] | IC50 [3] | IC50 (α1d-AR; Table B) | IC50 (α1b-AR; Table B) | IC50 (α1a-AR; Table B) |
| --- | --- | --- | --- | --- | --- | --- | --- | --- | --- |
| C=CCN(CCN1CCN(c2ccccc2OC(C)C)CC1)C(=O)CN1CCCCC1=O [compound 7] | 372 nM | 173 µM | 103 nM |  |  |  |  |  |  |
| CCOC(=O)C1CCC(=O)N1CC(=O)NCCN1CCN(c2ccccc2OC(C)C)CC1 (stereo not drawn) [compound 10] | 260 nM | 26.3 µM | 20 nM |  |  |  |  |  |  |
| CC(C)Oc1ccccc1N1CCN(CCN(Cc2ccccc2)C(=O)CN2CCCCC2=O)CC1 [compound 9] | 348 nM | 4.23 µM | 88 nM |  |  |  |  |  |  |
| CC(C)Oc1ccccc1N1CCN(CCNC(=O)CN2C(=O)c3ccccc3C2=O)CC1 [compound 13] |  |  |  |  |  |  | 11 nM | 1.62 µM | 104 nM |
